In the NIST ThermoML archive (doi:10.1021/acs.jced.5b00778):

Test: mn = molality of the nth substance listed, in mol/kg
Settings: 298.15 K; for surface tension liquid-gas: Ring tensiometer; for electrical conductivity: 100 kPa, Liquid, Alternating current cell with electrodes

CCCCCCCCCCCCCCCCOCC(O)C[N+](C)(C)CCCCCCCC.[Br-] (stereo not given) + O
Settings	electrical conductivity [S/m]	surface tension liquid-gas [mN/m]
m1 = 2.04e-06	–	69.09
m1 = 2.63e-06	–	68.55
m1 = 3.55e-06	–	61.94
m1 = 3.8e-06	–	60.95
m1 = 4.07e-06	–	55.95
m1 = 4.37e-06	–	48.71
m1 = 5.89e-06	–	44.65
m1 = 7.94e-06	–	41.6
m1 = 1.023e-05	–	37.64
m1 = 0.0067	5.6e-05	–
m1 = 0.0076	5.8e-05	–
m1 = 0.0086	6.4e-05	–
m1 = 0.0095	7.4e-05	–
m1 = 0.0105	7.7e-05	–
m1 = 0.0114	7.8e-05	–
m1 = 0.0124	9.3e-05	–
m1 = 0.0133	9.6e-05	–
m1 = 0.0143	0.000114	–
m1 = 0.0152	0.000111	–
m1 = 0.0162	0.000121	–
m1 = 0.0171	0.000132	–
m1 = 0.0181	0.000144	–
m1 = 0.019	0.000147	–
m1 = 0.0209	0.000168	–
m1 = 0.0219	0.000176	–
m1 = 0.0229	0.00019	–
m1 = 0.0238	0.000201	–
m1 = 0.0248	0.000212	–

CCCCCCCCCCCCCCOCC(O)C[N+](C)(C)CCCCCCCC.[Br-] (stereo not given) + O
Settings	electrical conductivity [S/m]	surface tension liquid-gas [mN/m]
m1 = 3.388e-06	–	60.85
m1 = 4.169e-06	–	59.07
m1 = 5.012e-06	–	58.67
m1 = 6.761e-06	–	54.53
m1 = 8.511e-06	–	51.91
m1 = 1.175e-05	–	47.9
m1 = 1.514e-05	–	44.86
m1 = 1.995e-05	–	41.5
m1 = 2.512e-05	–	39.09
m1 = 3.388e-05	–	36.16
m1 = 4.571e-05	–	33.74
m1 = 0.009	0.000161	–
m1 = 0.0144	0.000255	–
m1 = 0.0198	0.000343	–
m1 = 0.0252	0.000427	–
m1 = 0.0306	0.000521	–
m1 = 0.036	0.000636	–
m1 = 0.0414	0.000683	–

CCCCCCCCCCCCCC[N+](C)(C)CC(O)COCCCCCCCCCC.[Br-] (stereo not given) + O
Settings	electrical conductivity [S/m]	surface tension liquid-gas [mN/m]
m1 = 2.4e-07	–	70.44
m1 = 2.82e-07	–	69.87
m1 = 4.17e-07	–	69.41
m1 = 5.62e-07	–	65.68
m1 = 7.24e-07	–	57.18
m1 = 8.51e-07	–	53.77
m1 = 1.148e-06	–	48.14
m1 = 1.413e-06	–	44.06
m1 = 1.698e-06	–	40.95
m1 = 2.291e-06	–	35.65
m1 = 2.818e-06	–	33.63
m1 = 0.0013	2.8e-05	–
m1 = 0.0027	4.9e-05	–
m1 = 0.004	4.9e-05	–
m1 = 0.0053	5.8e-05	–
m1 = 0.0067	8e-05	–
m1 = 0.008	0.000102	–
m1 = 0.0093	0.000111	–
m1 = 0.0107	0.000117	–
m1 = 0.012	0.000157	–
m1 = 0.0133	0.00017	–
m1 = 0.0147	0.000166	–
m1 = 0.016	0.000201	–
m1 = 0.0174	0.000211	–
m1 = 0.0187	0.000243	–
m1 = 0.02	0.000261	–
m1 = 0.0214	0.000284	–
m1 = 0.0227	0.000297	–
m1 = 0.024	0.000319	–
m1 = 0.0254	0.00033	–
m1 = 0.0267	0.000361	–
m1 = 0.028	0.000376	–

CCCCCCCCCCCCOCC(O)C[N+](C)(C)CCCCCCCC.[Br-] (stereo not given) + O
Settings	electrical conductivity [S/m]	surface tension liquid-gas [mN/m]
m1 = 1.047e-05	–	64.92
m1 = 1.738e-05	–	60.07
m1 = 2.089e-05	–	57.65
m1 = 2.818e-05	–	53.97
m1 = 3.548e-05	–	52.04
m1 = 4.898e-05	–	48.46
m1 = 6.31e-05	–	46.1
m1 = 8.511e-05	–	42.5
m1 = 0.0001047	–	39.79
m1 = 0.0001479	–	36.43
m1 = 0.0001905	–	33.42
m1 = 0.014	0.00023	–
m1 = 0.028	0.00034	–
m1 = 0.0561	0.00065	–
m1 = 0.0841	0.00105	–
m1 = 0.1121	0.00117	–
m1 = 0.1402	0.00141	–
m1 = 0.1682	0.00173	–
m1 = 0.1962	0.00195	–
m1 = 0.2243	0.00226	–

CCCCCCCCCCOCC(O)C[N+](C)(C)CCCCCCCC.[Br-] (stereo not given) + O
Settings	electrical conductivity [S/m]	surface tension liquid-gas [mN/m]
m1 = 2.399e-05	–	63.84
m1 = 3.388e-05	–	60.78
m1 = 3.715e-05	–	59.62
m1 = 7.413e-05	–	53.71
m1 = 7.59e-05	0.00088	–
m1 = 0.0001122	–	49.75
m1 = 0.0001514	–	47
m1 = 0.0001518	0.00161	–
m1 = 0.0001905	–	45.13
m1 = 0.000235	0.0023	–
m1 = 0.000263	–	41.95
m1 = 0.0003035	0.00316	–
m1 = 0.0003715	–	39.03
m1 = 0.0004553	0.00439	–
m1 = 0.0005248	–	35.86
m1 = 0.000535	0.00496	–
m1 = 0.000607	0.00573	–
m1 = 0.0007413	–	33.29
m1 = 0.0007588	0.00697	–
m1 = 0.000835	0.00758	–
m1 = 0.0009105	0.00827	–
m1 = 0.001062	0.00937	–
